Molecules are shown by their SMILES. “And” between values parts separate entries of the source, which are not always exact repeats. Equal values may be shown once.

This assay addresses T1, Lymphokine-activated killer T-cell-originated protein kinase (Homo sapiens, UniProt Q96KB5).
T1 sequence (Q96KB5 whole entry): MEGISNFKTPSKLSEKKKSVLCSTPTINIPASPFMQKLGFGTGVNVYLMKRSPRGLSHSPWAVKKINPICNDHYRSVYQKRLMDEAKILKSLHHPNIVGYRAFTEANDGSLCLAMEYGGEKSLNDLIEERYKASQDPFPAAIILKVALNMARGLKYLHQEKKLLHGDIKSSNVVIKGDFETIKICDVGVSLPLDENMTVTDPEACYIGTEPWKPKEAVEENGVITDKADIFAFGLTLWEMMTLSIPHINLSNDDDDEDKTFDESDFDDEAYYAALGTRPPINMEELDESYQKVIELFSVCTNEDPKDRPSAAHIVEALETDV
The assay can be described thus: Kinase Assay. The following applies: pH 7.4; 25 °C. On the procedure:
PBK activity was determined in the presence or absence of compounds using fluorescein isothiocyanate-labeled (FITC-labeled) histone H3 peptide as a substrate. […] The serially diluted compounds, 0.8 ng/micro-L PBK (Carna Biosciences) and 100 nM FITC-labeled histone H3 peptide were reacted in a reaction buffer (20 mM HEPES, 0.01% Tween-20, 0.3 mM MgCl2, 2 mM dithiothreitol, 50 micro-M ATP, pH 7.4) at room temperature for 1 hour. The reaction was stopped by the addition of three fold assay volume of progressive binding solution. Following 0.5 hour incubation at room temperature.
In turn, `CC[C@@H](N)c1ccc(-c2c(O)cc(Cl)c3[nH]c(=O)c4sccc4c23)cc1` [US8962648, 1159] yielded a half-inhibitory concentration (IC50) of 26 nM. As to `COc1ccc2[nH]c(=O)c3sccc3c2c1-c1ccc(C(C)N2CCCC2)cc1` (configuration not stated) [US8962648, 216], half-maximal inhibition (IC50) was put at 21 nM.

Turning to `CNC[C@H](C)c1ccc(-c2c(OC)ccc3[nH]c(=O)c4sccc4c23)cc1` [US8962648, 1189], half-maximal inhibition (IC50) required 3 nM. With `CCN(CC)Cc1ccc(-c2c(O)ccc3[nH]c(=O)c4sccc4c23)cc1` [US8962648, 184] the figure was 7.7 nM; with `CC(NC1CCCC1)c1ccc(-c2c(O)ccc3[nH]c(=O)c4sccc4c23)cc1` (configuration not stated) [US8962648, 314], 2.8 nM; with `COc1cc(C)c2[nH]c(=O)c3sc(Cl)cc3c2c1-c1ccc([C@@H](C)CN)cc1` [US8962648, 1354], 11 nM. In turn, `CC(N)c1ccc(-c2c(O)ccc3[nH]c(=O)c4sccc4c23)cc1F` (configuration not stated) [US8962648, 359] yielded an IC50 of 0.92 nM. Compound `CN(C)CC1(c2ccc(-c3c(O)ccc4[nH]c(=O)c5sccc5c34)cc2)CC1` [US8962648, 379] yielded an IC50 of 3.6 nM. The compound `Cc1cc(O)c(-c2ccc(CCN)c(Cl)c2)c2c1[nH]c(=O)c1sccc12` [US8962648, 1264] showed an IC50 of 3 nM.

`C[C@H](c1ccc(-c2c(O)ccc3[nH]c(=O)c4sccc4c23)cc1)N(C)C` [US8962648, 272]: the half-inhibitory concentration (IC50) came out at 0.88 nM. Compound `O=c1[nH]c2ccc(O)c(-c3ccc(S(=O)(=O)NCCCl)cc3)c2c2c1CCC2` [US8962648, 1145] displayed a 50% inhibitory concentration (IC50) of 13 nM. With `NC1Cc2ccc(-c3c(O)ccc4[nH]c(=O)c5sccc5c34)cc2C1` (configuration not stated) [US8962648, 345] the figure was 1.2 nM; with `CC[C@H](NC)c1ccc(-c2c(O)cc(Cl)c3[nH]c(=O)c4sccc4c23)cc1` [US8962648, 1154], 9.4 nM.

Turning to `NCCc1ccc(-c2c(O)ccc3[nH]c(=O)c4sccc4c23)cc1` [US8962648, 176], the IC50 was 1.2 nM and 1.1 nM. `CC[C@H](NC)c1ccc(-c2c(O)ccc3[nH]c(=O)c4sccc4c23)cc1` [US8962648, 1148] registered a 50% inhibitory concentration (IC50) of 1.3 nM. `CN[C@@H](C)c1ccc(-c2c(O)ccc3[nH]c(=O)c4sccc4c23)cc1` [US8962648, 1082]: the IC50 is 1.1 nM. `CC(=O)c1ccc(-c2c(O)ccc3[nH]c(=O)c4sccc4c23)cc1` [US8962648, 296] gave an IC50 of 23 nM. The value for `COc1cc(C)c2[nH]c(=O)c3sc(C)cc3c2c1-c1ccc([C@@H](C)CN)cc1` [US8962648, 1341] was 38 nM.

With `CCNCc1ccc(-c2c(OC)ccc3[nH]c(=O)c4sccc4c23)cc1` [US8962648, 269], the IC50 came to 6 nM. Turning to `O=c1[nH]c2ccc(O)c(-c3ccc(S(=O)(=O)NCCBr)c(F)c3)c2c2ccsc12` [US8962648, 297], half-maximal inhibition (IC50) was put at 13 nM. Regarding `Cc1cc(O)c(-c2ccc(C(C)(C)CN)c(F)c2)c2c1[nH]c(=O)c1sccc12` [US8962648, 1278], inhibition was half-maximal at 22 nM (IC50).

For `CC[C@H](N)c1ccc(-c2c(OC)ccc3[nH]c(=O)c4sccc4c23)cc1` [US8962648, 1121], the midpoint of inhibition, the IC50, lay at 2.9 nM. For the compound `CCC(CN)c1ccc(-c2c(O)cc(C)c3[nH]c(=O)c4sccc4c23)cc1` (configuration not stated) [US8962648, 1291], half-maximal inhibition (IC50) required 15 nM. Regarding `NCC1(c2ccc(-c3c(O)cc(Cl)c4[nH]c(=O)c5sccc5c34)cc2)CC1` [US8962648, 1116], the IC50 is 22 nM. Compound `COc1ccc2[nH]c(=O)c3sccc3c2c1-c1ccc(S(=O)(=O)NCCF)cc1` [US8962648, 333] had an IC50 of 31 nM. Turning to `CCNCc1ccc(-c2c(O)ccc3[nH]c(=O)c4sccc4c23)cc1` [US8962648, 267], the half-maximal inhibitory concentration (IC50) was found to be 2 nM.

`COc1cc(C)c2[nH]c(=O)c3sccc3c2c1-c1ccc(C2(CN)CC2)cc1` [US8962648, 1251]: the IC50 was determined as 55 nM.

In turn, `CN(C)Cc1ccc(-c2c(O)ccc3[nH]c(=O)c4sccc4c23)cc1` [US8962648, 165] came in with an IC50 of 6.9 nM. Take `Cc1cc(O)c(-c2ccc([C@@H](C)CN)cc2)c2c1[nH]c(=O)c1sc(F)cc12` [US8962648, 1383]: the IC50 was 3.7 nM.

For `O=c1[nH]c2ccc(O)c(-c3ccc(S(=O)(=O)NCCBr)cc3)c2c2ccsc12` [US8962648, 210], the IC50 is 11.3 nM. Compound `CS(=O)(=O)NCc1ccc(-c2c(O)ccc3[nH]c(=O)c4sccc4c23)cc1` [US8962648, 212] yielded an IC50 of 5.5 nM.

`CC(c1ccc(-c2c(O)ccc3[nH]c(=O)c4sccc4c23)cc1)N1CCCC1` (configuration not stated) [US8962648, 194] yielded an IC50 of 2.8 nM.

For `N#CCc1ccc(-c2c(O)ccc3[nH]c(=O)c4sccc4c23)cc1` [US8962648, 81], the IC50 was 12 nM.

In turn, `NCC1CCN(Cc2ccc(-c3c(O)ccc4[nH]c(=O)c5sccc5c34)cc2F)CC1` [US8962648, 235] registered a half-inhibitory concentration (IC50) of 0.57 nM. `CC[C@@H](c1ccc(-c2c(O)ccc3[nH]c(=O)c4sccc4c23)cc1)N(C)C` [US8962648, 1128] returned an IC50 of 2.2 nM.

Regarding `O=c1[nH]c2ccc(O)c(-c3ccc4cn[nH]c4c3)c2c2ccsc12` [US8962648, 61], the IC50 was 3.5 nM.

As to `NCCc1cc(Br)c(-c2c(O)ccc3[nH]c(=O)c4sccc4c23)cc1O` [US8962648, 1224], the IC50 is 6.4 nM. For the compound `NCc1ccc(-c2c(O)ccc3[nH]c(=O)c4sccc4c23)cc1` [US8962648, 73], the IC50 was 0.63 nM and 0.38 nM.

Regarding `COc1cc(F)c2[nH]c(=O)c3sccc3c2c1-c1ccc(CN)cc1` [US8962648, 257], half-maximal inhibition (IC50) required 26 nM. Regarding `NCCc1ccc(-c2c(O)ccc3[nH]c(=O)c4sccc4c23)cc1F` [US8962648, 276], the IC50 came out at 0.5 nM. On to `Cc1cc2c(s1)c(=O)[nH]c1c(C)cc(O)c(-c3ccc([C@@H](C)CN)cc3)c12` [US8962648, 1340], for which the IC50 worked out at 12 nM. `CN[C@H](C)c1ccc(-c2c(O)cc(C)c3[nH]c(=O)c4sccc4c23)cc1` [US8962648, 1262] came in with an IC50 of 12 nM.

The compound `CC(O)c1ccc(-c2c(O)ccc3[nH]c(=O)c4sccc4c23)cc1` (configuration not stated) [US8962648, 313] showed an IC50 of 2 nM. Take `CN[C@@H](C)c1ccc(-c2c(OC)ccc3[nH]c(=O)c4sccc4c23)cc1` [US8962648, 1064]: half-maximal inhibition (IC50) was put at 2.5 nM.

Consider `CCC(N)c1ccc(-c2c(O)ccc3[nH]c(=O)c4sccc4c23)cc1` (configuration not stated) [US8962648, 336], for which half-maximal inhibition (IC50) was put at 0.82 nM. `O=c1[nH]c2ccc(O)c(-c3ccc(S(=O)(=O)NCCBr)cc3)c2c2c1CCC2` [US8962648, 1094] registered an IC50 of 10 nM. As to `CC(N)c1ccc(-c2c(O)ccc3[nH]c(=O)c4sccc4c23)cc1` (configuration not stated) [US8962648, 195], half-maximal inhibition (IC50) was put at 0.73 nM. The compound `CC(C)(CN)c1ccc(-c2c(O)ccc3[nH]c(=O)c4sccc4c23)cc1` [US8962648, 277] came in with an IC50 of 0.67 nM. In turn, `CC(C)(CN)c1ccc(-c2c(O)cc(Br)c3[nH]c(=O)c4sccc4c23)cc1` [US8962648, 1247] showed a half-inhibitory concentration (IC50) of 72 nM. `CCN[C@H](CC)c1ccc(-c2c(O)ccc3[nH]c(=O)c4sccc4c23)cc1` [US8962648, 1127] returned a half-inhibitory concentration (IC50) of 1.4 nM. Take `NCC1(c2ccc(-c3c(O)ccc4[nH]c(=O)c5sccc5c34)cc2)CC1` [US8962648, 348]: it took 1.9 nM to reach half-maximal inhibition (IC50). As for `COc1cc(C)c2[nH]c(=O)c3sc(F)cc3c2c1-c1ccc([C@@H](C)CN)cc1` [US8962648, 1375], the IC50 was determined as 22 nM.

Compound `Cc1cc(O)c(-c2ccc(C3(CN)CCC3)cc2)c2c1[nH]c(=O)c1sccc12` [US8962648, 1290] returned an IC50 of 10 nM. For `CC(c1ccc(-c2c(O)ccc3[nH]c(=O)c4sccc4c23)cc1)N(C)C` (configuration not stated) [US8962648, 192], the half-inhibitory concentration (IC50) was 1.6 nM and 1.9 nM. The value for `CC[C@@H](N)c1ccc(-c2c(O)ccc3[nH]c(=O)c4sccc4c23)cc1` [US8962648, 1131] was 1.3 nM. Regarding `COc1ccc2[nH]c(=O)c3sccc3c2c1-c1ccc(CCN)cc1` [US8962648, 169], it took 22 nM to reach half-maximal inhibition (IC50). For `CN[C@H](C)c1ccc(-c2c(O)cc(Br)c3[nH]c(=O)c4sccc4c23)cc1` [US8962648, 1135], half-maximal inhibition (IC50) required 30 nM. With `CC(c1ccc(-c2c(O)ccc3[nH]c(=O)c4sccc4c23)cc1)N1CCCCC1` (configuration not stated) [US8962648, 262] the figure was 4.3 nM; with `CC(N)Cc1ccc(-c2c(O)cc(Cl)c3[nH]c(=O)c4sccc4c23)cc1` (configuration not stated) [US8962648, 1106], 41 nM.

`O=c1[nH]c2ccc(O)c(-c3ccc(S(=O)(=O)NCCCl)cc3)c2c2ccsc12` [US8962648, 332] gave an IC50 of 23 nM. `N#Cc1ccc2[nH]c(=O)c3sccc3c2c1-c1ccc(CN)cc1` [US8962648, 326]: the IC50 came to 13 nM. The compound `CNCCc1ccc(-c2c(O)cc(C)c3[nH]c(=O)c4sccc4c23)cc1F` [US8962648, 1258] showed an IC50 of 25 nM. On to `N#CCCc1ccc(-c2c(O)ccc3[nH]c(=O)c4sccc4c23)cc1` [US8962648, 290], for which it took 3.2 nM to reach half-maximal inhibition (IC50). Compound `COc1cc(Br)c2[nH]c(=O)c3sccc3c2c1-c1ccc(C2(CN)CC2)cc1` [US8962648, 1391] registered an IC50 of 70 nM. For `N[C@H]1CCN(c2ccc3[nH]c(=O)c4sc(-c5ccc(O)cc5)cc4c3c2)C1` [US8962648, 51], the midpoint of inhibition, the IC50, lay at 78 nM.

In turn, `CS(=O)(=O)Nc1ccc(-c2c(O)ccc3[nH]c(=O)c4sccc4c23)cc1` [US8962648, 77] came in with an IC50 of 2.6 nM. In the case of `COc1cc(C)c2[nH]c(=O)c3sccc3c2c1-c1ccc(C2(CN)CCC2)cc1` [US8962648, 1297], the midpoint of inhibition, the IC50, lay at 35 nM.

As a reminder, the IC50 is the concentration that gives 50% inhibition. Lower therefore signals greater potency in that assay.

The values are drawn from BindingDB's records for patent US8962648 (Oncotherapy Science, 2015).
